Assays:
[1] = peak appears above the melting temperature; 2 degree/min under nitrogen flow
Procedure: TG and DSC studies were performed on Thermobalance, TG50 and differential scanning calorimeter, DSC 822 (Mettler, Toledo) in the range 25-200° C. under nitrogen flow at a heating rate of 2 degree/min.

[2] = Procedure: The compounds may be kept, for example, in closed vessels in a 4° C. refrigerator.

## N[C@@H](CO)C(=O)O.OO [Example 1, L-Serine Mono Hydrogen Peroxide Solvate C3H7NO3.H2O2]
[1]
  exothermic decomposition peak (DSC): about 85 °C
[2]; room temperature, several months
  hydrogen peroxide concentration on storage: maintained constant hydrogen peroxide concentration for several months
[2]; stored at room temperature for at least three weeks
  loss of active oxygen on storage: no loss of active oxygen
